Columns and labels:
CT26 cells [1] = experiment: Immunogenic cell death: extracellular ATP release; assay type: cell-based; conditions: CT26, 5 μM, 24 h, +L/−L
Protocol: (§1) First, CT26 cells were plated in 35 mm cell culture dishes at a density of 1×10^5 cells/dish and doxorubicin (DOX) (5 μM), verteporfin (VPF) (5 μM) or the self-assembled nanoparticles (LT-NPs) (5 μM) were added to each dish. After 24-h culture, one half was exposed by irradiation with visible light using a 671 nm laser at 40 mW for 250 sec (+L) and the other half was not irradiated with visible light for comparison (−L). The immunogenic cell death of the self-assembled nanoparticles (LT-NPs) was evaluated using the cells and the cell culture media.
ATP was analyzed using a commercially available ATP assay kit (Beyotime Biotechnology) according to the manufacturer's protocol.

CT26 cells [2] = experiment: Immunogenic cell death: calreticulin expression; assay type: cell-based; conditions: CT26, 5 μM, 24 h, +L/−L
Protocol: as §1
Cells were stained with APC-conjugated CRT antibody for 12 h and observed with a confocal fluorescence microscope.

CT26 cells [3] = experiment: Immunogenic cell death: extracellular HSP70 and HMGB1 (Western blotting); assay type: cell-based; conditions: CT26, 5 μM, 24 h, +L/−L
Protocol: as §1
Before staining the cells with APC-conjugated CRT antibody, culture media were separated from the cells and the extracellular expression levels of HMGB1 and HSP70 were analyzed by Western blotting.
Each cell culture medium was treated with RIPA buffer (Cell Signaling Technology) at 4° C. for 30 min and the protein amount of the lysate was analyzed using a Pierce BCA protein assay kit (Thermo Fisher Scientific) according to the manufacturer's protocol. After SDS-PAGE, proteins were transferred to a PVDF membrane (Bio-Rad), which was then treated with Tris-buffered saline (TBS-T) containing 5% skim milk and 0.1% Tween-20. The membrane was incubated with primary antibodies at 4° C. overnight. HSP70 and HMGB1 antibodies were used as the primary antibodies. The membrane was washed with TBS-T and incubated with a secondary antibody at room temperature for 1 h. The membrane was washed with TBS-T, treated with EZ-Western Lumi Pico or Femto reagent (DoGen), and analyzed using Fusion-Solo software (Vilber) according to the manufacturer's protocol to determine band intensities.

[4] = Morphological analysis by transmission electron microscopy in saline; assay type: physicochemical; conditions: 1 mg in 1 mL physiological saline
Protocol: The self-assembled nanoparticles (LT-NPs) prepared in Example 1, doxorubicin (DOX), and verteporfin (VPF) were used as samples. 1 mg of each sample was mixed with physiological saline (1 mL). […] The self-assembled nanoparticles (LT-NPs) were mixed with cathepsin B (Cat-B) protease (50 μg/mL). The mixture was allowed to react for 24 h.

CT26 cells [5] = experiment: Apoptosis and necrosis of CT26 cells (Annexin V/PI flow cytometry); assay type: cell-based; conditions: CT26, visible light
Protocol: The degrees of apoptosis and necrosis of cancer cells were quantitatively analyzed to accurately evaluate the anticancer effect of the self-assembled nanoparticles (LT-NPs). First, CT26 cells treated with doxorubicin (DOX), verteporfin (VPF), a mixture of doxorubicin and verteporfin (VPF+DOX) or the self-assembled nanoparticles (LT-NPs) and a laser were prepared as above and treated with 5 μg of Annexin V-FITC and 10 μg of PI solution for 10 min. Then, cells were cultured with a cell fixative for 10 min and further cultured with DAPI for 20 min. The degrees of apoptosis and necrosis were quantitatively analyzed using a flow cytometer (BD FACSVerse, BD bioscience, USA).

Compound | ATP release (CT26 cells [1]) | calreticulin expression (CT26 cells [2]) | HMGB-1 release (CT26 cells [3]) | HSP70 release (CT26 cells [3]) | morphology in physiological saline (TEM) [4] | degree of apoptosis (and necrosis) (CT26 cells [5]) | proportions of early apoptosis, late apoptosis and necrosis (CT26 cells [5])
COc1cccc2c1C(=O)c1c(O)c3c(c(O)c1C2=O)C[C@@](O)(C(=O)CO)C[C@@H]3O[C@H]1C[C@H](N)[C@H](O)[C@H](C)O1 [doxorubicin] | lowest | lowest | lowest | lowest | aggregated | very little apoptosis | 
verteporfin | relatively increased | relatively increased | relatively increased | relatively increased | aggregated | considerable apoptosis and necrosis | increase the proportion of late apoptosis

— patent US11833204B2, “Visible light-activatable nanoparticles for cancer immunotherapy and use thereof” (KOREA INSTITUTE OF SCIENCE AND TECHNOLOGY, priority 2021, dated 2023)
